Experimental data reported in patent publication US6602861B1, “Acylated phospholipid drugs” (Research Corporation Technologies, Inc., priority 1992, dated 2003).
Entries after “also recorded” stand apart in the source; their conditions may differ. Like-named read-outs stand apart in the source and are kept apart here.

Assays:
HIV-1 (3B) = assay: HIV-1 p24 antigen capture assay in infected monocyte-derived macrophages; format: cell-based; conditions: for dose response behaviour in MDM: 1-100 μM; for inhibition of HIV p24 antigen production in MDM: 50 μM
PBMC = assay: Drug cytotoxicity MTT assay (TC50), PBMC; format: cell-based; conditions: PBMC cells, absence of HIV
Protocol: (§1) Three assays for anti-HIV activity were used and the IC50 was calculated from these assays; (i) syncytial cell assays, (ii) reverse transcriptase assays, and (iii) direct […]. In addition, direct drug cytotoxicity was tested ‘as a control’ in each assay which merely means that the drug was dosed to the cells without virus present. This control assured that only the antiviral effect of the compound is measured. However, this drug cytotoxicity was not used to calculate the TC50 because the TC50 required doses of drug that were higher than the effective concentrations. Thus the TC50 is the dose of drug that kills 50% of the cells without virus present and was measured in MTT assays using the same cells type to evaluate antiviral activity. The therapeutic index was calculated from TC50/IC50. The ability of anti-HIV phospholipids to inhibit direct cytopathic effect caused by HIV infection was also measured.
(§2) MT4 cells were plated in 96-well microtiter plates at 8×10^4 cells/well in a volume of 90 μl. [Note: To compare TC50 to IC50, the same cell type used in antiviral assays was tested in the MTT assay; for these experiments, MT4 cells were used to evaluate the syncytial cell assays and PBMC's were used to compare the PBMC/RT assay]. To this was added one minimum cytotoxic dose of HIV in a volume of 10 μl. […] Plates were read on an ELISA reader at Abs 570 nm. […]

HIV [1] = assay: Anti-HIV activity of D-AC2 and PE analogs compared with 12MO (FIG. 7); format: cell-based
[2] = tested on: HIV (S5G7, subclone of HTLVIIIB); assay: microbe, parasite or virus in culture; format: cell-based; conditions: 7 days after infection, read-out: IC50 50% Reduction in Reverse Transcriptase Activity PBMC
[3] = molecular target: bee venom phospholipase A2 (PLA2) (Apis mellifera, UniProt P00630)
Sequence of bee venom phospholipase A2 (PLA2) (P00630 34-167 limits assumed): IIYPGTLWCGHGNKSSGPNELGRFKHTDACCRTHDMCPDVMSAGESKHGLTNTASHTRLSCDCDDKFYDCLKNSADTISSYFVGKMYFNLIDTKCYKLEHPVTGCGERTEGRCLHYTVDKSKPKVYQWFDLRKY

in vitro = assay: in vitro
Protocol: Stability of Anti-HIV Phlospholipids in Fresh Blood at 38° C.
Drug development using phospholipids will require that the parent compound is stable in blood. […] L-PE1 and L-PE2 are identical except that the methylene group in the 13 position of the sn-2 alkyl chain has been replaced with an oxygen atom.

MT4 cells = assay: Drug cytotoxicity MTT assay (TC50), uninfected MT4 cells; format: cell-based
Protocol: as §1
(§3) MT4 cells were plated in 96-well microtiter plates at 8×10^4 cells/well in a volume of 90 μl. [Note: To compare TC50 to IC50, the same cell type used in antiviral assays was tested in the MTT assay; for these experiments, MT4 cells were used to evaluate the syncytial cell assays and PBMC's were used to compare the PBMC/RT assay]. To this was added one minimum cytotoxic dose of HIV in a volume of 10 μl. The test drug was added in 100 μl aliquots at several concentrations. A control plate using uninfected MT4 cells was set up simultaneously to assess cytotoxicity due to the drug alone. The plates were then incubated for five days at 37° C. Then the media was aspirated from the wells and replaced with 100 μl MTT solution (3-(4,5-dimethylthiazol-2-yl)-2,5-di-phenyltetrazolium bromide, 1 mg/ml in PBS) and incubated for 4 hours at 37° C. The plates were then centrifuged to pellet the cells, and the supernatants were removed (centrifugation can be omitted if the supernatants are removed carefully). […] Plates were read on an ELISA reader at Abs 570 nm. […]

HIV infected MT4 cells [4] = assay: Synergism with AZT in syncytial cell assays (FIG. 6); format: cell-based; conditions: for increase in activity (shift in dose response curve) when AZT was added: plus 0.5 nM AZT
Protocol: (§4) Briefly, the assay was performed as follows. On Day 0, MT4 cells were infected with HIV. On Day 3, mix 10^3-10^4 infected cells (resuspend cells at 10^4-10^5 cells/ml so that the desired number of cells is in a volume of 100 μl) with 10^5 SupT1 cells (suspended at 10^6/ml, so that there are 10^5 cells per 100 μl) in a 96 well plate. Infected cells are titered to find the optimum number of syncytial cells to count. Cells are counted either manually or by flow cytometry. […] The time intervals for other cell lines may vary. To assay drugs that block syncytia formation, 50 μl SupT1, 50 μl infected (MT4) cells (total cell number is the same), and 100 μl of drug are present.

HIV [5] = assay: microbe, parasite or virus in culture
Protocol: as §4

[6] = Liposome formation in aqueous buffers; format: physicochemical
Excerpt: The increased activity of L-AC1 in MDM compared to CEM cells may be due to the phagocytosis of L-AC1 liposomes in MDM.

HIV-1 = conditions: CEM cells
Excerpt: The S5G7 strain of HIV was used. S5G7 is a subclone of HTLVIIIB grown in H9 cells, and highly virulent regarding T cell infectivity, but less so for monocytes; this strain was obtained from Abbott Laboratories.
This assay measures the ability of a drug to inhibit the HIV virus from killing cells. CEM cells were used for this assay.
The T-cell HIV inhibition assay method of acutely infected cells is an automated tetrazolium based calorimetric assay adapted from Novak, et al., Aids Res. and Human Retroviruses, 6, 973 (1990). Assays were performed in 96-well tissue culture plates. CEM cells were grown in RPMI-1640 medium (Gibco) supplemented with 10% fetal calf serum and were then treated with polybrene (2 μg/ml). A 80 μl volume of medium containing 1×10^4 cells was dispensed into each well of the tissue culture plate. To each well was added a 100 μl volume of test compound dissolved in tissue culture medium (or medium without test compound as a control) to achieve the desired final concentration and the cells were incubated at 37° C. for 1 hour. A frozen culture of HIV-1 was diluted in culture medium to a concentration of 5×10^6 TCID50 per ml (TCID50=the dose of virus that infects 50% of cells in tissue culture), and a 20 μl volume of the virus sample (containing 1000 TCID50 of virus) was added to wells containing test compound and to wells containing only medium (infected control cells). […] Several wells received culture medium without virus (uninfected control cells). Azidothymidine (AZT) was tested as a positive drug control.
Following the addition of virus, cells were incubated at 37° C. in a humidified, 5% CO2 atmosphere for 7 days. Additional aliquots of test compounds were added on days 2 and 5. On day 7 post-infection, the cells in each well were resuspended and a 100 μl sample of each cell suspension was removed for assay. […] The absorbance of each sample was determined at 590 nm using a Molecular Devices microplate reader. The % reduction of the virus induced cytopathic effect (CPE) by the test compounds was calculated from the equation.

CEM cells [7] = tested on: CEM cells
[8] = tested on: monocyte-derived macrophages (MDM); assay: Toxicity seen in the macrophage p24 experiment; conditions: 100 μM
[9] = Drug cytotoxicity MTT assay (TC50), PBMC; format: cell-based; conditions: human, uninfected; PBMC cells, absence of HIV
Protocol: as §1, §2

CEM cells [10] = assay: Direct cytotoxicity of compounds to CEM cells without virus; conditions: for direct cytotoxicity to CEM cells: no virus
[11] = delivered to cells as a free fatty acid; cited from earlier work
[12] = Drug cytotoxicity MTT assay (TC50), uninfected MT4 cells; format: cell-based; conditions: human, uninfected MT4 cells; MT4 cells, absence of HIV
Protocol: as §1, §3

HIV infected MT4 cells [13] = conditions: literature report; cited from earlier work

Molecule: 1,2-(di-12-methoxydodecanoyl)-sn-3-phosphatidylcholine [L-AC2]
- inhibition of HIV infection in macrophages (p24 antigen) (HIV-1 (3B); 1 μM, 15 day acute infection): completely suppressed
- inhibition of HIV infection in macrophages (p24 antigen) (HIV-1 (3B); 1 μM, 15 day acute infection, listed as AC2): completely effective
- dose response behaviour in MDM (HIV-1 (3B)): No dose response was observed
- inhibition of HIV infection in macrophages (p24 antigen) (HIV-1 (3B); all doses tested (1-100 μM)): completely inhibited
- potency in HIV infected MDM compared with 12MO (HIV-1 (3B); comparison in words): significantly more potent
- CC50 (PBMC): 220 µM
- IC50 (HIV [1]): ~1 µM
- IC50 ([2]; PBMC, listed as AC2): ~4 µM
- IC50 ([2]; PBMC): 6 µM
- hydrolysis by PLA2 [3]: quantitatively hydrolyzed
- halflife in fresh blood (in vitro): 4.56 h
- CC50 (MT4 cells; MT4 cells, absence of HIV): 280 µM
- TC50 in the presence of AZT (MT4 cells; uninfected MT4 cells, AZT 50 nM to 500 nM): unchanged
- activity alone in syncytial cell assay (HIV infected MT4 cells [4]; 5 nM): inactive
- inhibition of syncytia formation (HIV infected MT4 cells [4]; 5 nM L-AC2 plus 0.5 nM AZT, HIV infected MT4 cells): ~50%
- activity alone in syncytial cell assay (HIV infected MT4 cells [4]; 10 nM): inactive
- synergistic effects with AZT (HIV infected MT4 cells [4]; compared with 12MO and AZT, FIG. 6): increased synergistic effects
- increase in activity (shift in dose response curve) when AZT was added (HIV infected MT4 cells [4]): approximately 100 fold
- IC50 (HIV [5]; read-out: IC50 50% Reduction in syncytial cell formation MT4 cells, HIV infected MT4 cells, SupT1 target cells): 1 µM
- IC50 (HIV [5]; read-out: IC50 50% Reduction in syncytial cell formation MT4 cells, HIV infected MT4 cells, SupT1 target cells, listed as AC2): ~1 µM
- liposome formation [6]: formed liposomes

Molecule: 1-(12-methoxydodecanoyl)-sn-3-glycerophosphatidylcholine [lysoAC2]
- IC50 (HIV-1; read-out: IC50, reduction of virus induced cytopathic effect (CPE), 7 days, FIG. 1): ~100 µM
- toxicity compared with the other analogs (CEM cells [7]): significantly less toxic

Molecule: 1-myristoyl-2-(12-methoxydodecan-oyl)-sn-3-phosphalidylcholine [AC1]
- inhibition of HIV p24 antigen production in MDM (HIV-1 (3B)): completely suppressed
- inhibition of HIV infection in macrophages (p24 antigen) (HIV-1 (3B); 100 μM): almost complete inhibition
- dose response behaviour in MDM (HIV-1 (3B); listed as L-AC1): dose responsive activity
- activity in direct cytopathic assay (HIV-1; 50 μM): little activity
- anti-HIV activity with the active fatty acid anchored in the sn-2 position (HIV-1; FIG. 1, in words): significantly reduced the activity
- toxicity compared with the other analogs (CEM cells [7]): significantly less toxic
- liposome formation [6]: formed liposomes

Molecule: COCCCCCCCCCCCC(=O)O [12MO, 12-methoxydodecanoic acid, reference compound]
- toxicity in macrophage experiment [8]: toxic
- inhibition of HIV p24 antigen production in MDM (HIV-1 (3B)): little activity
- activity in MDM (HIV-1 (3B); 100 μM): ~100%
- inhibition of HIV infection in macrophages (p24 antigen) (HIV-1 (3B); 100 μM): completely suppressed; also recorded: suppressed HIV replication
- dose response behaviour in MDM (HIV-1 (3B)): very steep dose response effect
- inhibition of HIV infection in macrophages (p24 antigen) (HIV-1 (3B); doses from 1 to 50 μM (below 100 μM)): little activity
- CC50 at 5 days [9]: 340 µM
- direct cytotoxicity to CEM cells (CEM cells [10]; 40 μM): showed toxicity
- toxicity compared with the other analogs (CEM cells [10]; CEM cells, comparison in words): most toxic analog tested in this series
- direct cytotoxicity to CEM cells (CEM cells [10]; dose up to 400 μM): toxic
- IC50 ([2]; Human immunodeficiency virus 1, PBMC, 168 h): ~12 µM
- IC50 ([2]; PBMC): 19 µM
- T2 for incorporation into triglycerides and membrane lipids [11]: 1 to 2 min
- CC50 at 5 days [12]: 140 µM
- synergism when administered concurrently with AZT (reported) (HIV infected MT4 cells [13]): act synergistically
- increase in activity (shift in dose response curve) when AZT was added (HIV infected MT4 cells [4]): < 10 fold
- IC50 (HIV [5]; Human immunodeficiency virus 1, read-out: IC50 50% Reduction in syncytial cell formation MT4 cells, HIV infected MT4 cells, SupT1 target cells): ~4 µM
- Therapeutic Index MT4 cells (TC50/IC50) (HIV [5]; MT4 cells, syncytial cell assay): 35

Molecule: CCCCCCCCCCCCCC(=O)OC[C@H](COP(=O)(O)OCCN)OC(=O)CCCCCCCCCCCOC [L-PE1, 1-Myristoyl-2-[12-methoxydodecanoyl]-sn-glycero-3-phosphoethanolamine]
- IC50 (HIV [1]; Human immunodeficiency virus 1): 6 µM
- half-life (in vitro): > 50 h

Molecule: COCCCCCCCCCCCC(=O)OC[C@H](COP(=O)(O)OCCN)OC(=O)CCCCCCCCCCCOC [L-PE2, 1,2 di-(12-Methoxydodecanoyl)-sn-glycero-3-phosphoethanolamine]
- anti-HIV activity relative to 12MO (HIV [1]): > 100 fold
- IC50 (HIV [1]; Human immunodeficiency virus 1): 0.02 µM
- half-life (in vitro): 9.36 h
